Source: ChEMBL document CHEMBL4651402, “Screening of ~5500 FDA-approved drugs and clinical candidates for anti-SARS-CoV-2 activity” (2021)

System: SARS-CoV-2
Assay: microbe, parasite or virus in culture
Conditions: Severe acute respiratory syndrome coronavirus 2, Vero C1008, 48 h

| SMILES | IC50 [µM] | IC50 (read-out: pIC50 (converted)) [µM] |
| --- | --- | --- |
| CNCCCC1(c2ccccc2)OC(C)(C)c2ccccc21 (configuration not stated) [TALOPRAM] | > 20 | > 20 |
| CC(=O)Oc1ccc(C2(c3ccc(OC(C)=O)cc3)C(=O)Nc3ccccc32)cc1 [OXYPHENISATIN ACETATE] | > 20 | > 20 |
| COc1ccc2cc3[n+](cc2c1OC)CCc1cc2c(cc1-3)OCO2 [BERBERINE] | > 20 | > 20 |
| CC(C(=O)O)c1cccc(Oc2ccccc2)c1 (configuration not stated) [FENOPROFEN] | > 20 | > 20 |
| CC1CC(C)C(=O)C(C(O)CC2CC(=O)NC(=O)C2)C1 (configuration not stated) | > 20 | > 20 |
| Cc1cccc(Cl)c1C(=O)N[C@@H](Cc1ccc(NC(=O)c2c(Cl)cccc2Cl)cc1)C(=O)O | > 20 | > 20 |
| O=C(O)CCCN1CCC[C@H]1COc1ccc(Oc2ccc(Cl)cc2)cc1 | > 20 | > 20 |
| CC[C@H](c1ccc(O)cc1)[C@@H](CC)c1ccc(O)cc1 [HEXESTROL] | > 20 | > 20 |
| CC(C)=CC[C@@H](O)C1=CC(=O)c2c(O)ccc(O)c2C1=O [SHIKONIN] | > 20 | > 20 |
| Nc1nc(O)c2ncn([C@@H]3O[C@H](CO)[C@@H](O)[C@H]3F)c2n1 | > 20 | > 20 |
| COc1c2occc2cc2ccc(=O)oc12 [METHOXSALEN] | > 20 | > 20 |
| c1cnc2c(c1)CC1(CN3CCC1CC3)O2 (configuration not stated) | > 20 | > 20 |
| C/C(=C\C(=O)OCCCCCCCCC(=O)O)C[C@@H]1OC[C@H](C[C@@H]2O[C@H]2[C@H](C)[C@H](C)O)[C@@H](O)[C@@H]1O | > 20 | > 20 |
| CC(C)CCC[C@@H](C)[C@H]1CC[C@H]2[C@@H]3CC=C4CC(O)CC[C@]4(C)[C@H]3CC[C@]12C (some centres not stated) | > 20 | > 20 |
| C=C(C)Cn1c(N)cc(=O)n(C)c1=O [AMISOMETRADINE] | > 20 | > 20 |
| COc1ccc(CCN(C)CCCN2CCc3cc(OC)c(OC)cc3CC2=O)cc1OC [ZATEBRADINE] | > 20 | > 20 |
| C#Cc1cccc(Nc2ncnc3cc(OCCOC)c(OCCOC)cc23)c1 [ERLOTINIB] | > 20 | > 20 |
| O=C(Nc1c(Cl)cncc1Cl)c1ccc(OC(F)F)c(OCC2CC2)c1 [ROFLUMILAST] | > 20 | > 20 |
| CC[C@H]1OC(=O)[C@H](C)[C@@H](O[C@H]2C[C@@](C)(OC)[C@@H](O)[C@H](C)O2)[C@H](C)[C@@H](O[C@@H]2O[C@H](C)C[C@H](N(C)C)[C@H]2O)[C@](C)(O)C[C@@H](C)C(=O)[C@H](C)[C@H]2OC(=O)O[C@@]21C | > 20 | > 20 |
| CN(C)[C@@H]1C(O)=C(C(N)=O)C(=O)[C@@]2(O)C(O)=C3C(=O)c4c(O)cccc4[C@@](C)(O)[C@H]3[C@H](O)[C@@H]12 [OXYTETRACYCLINE] | > 20 | > 20 |
| CC1N(CC(=O)c2ccccc2)CCCC1(C)c1cccc(O)c1 (configuration not stated) [MYFADOL] | > 20 | > 20 |
| COCCOc1cnc(NS(=O)(=O)c2ccccc2)nc1 [GLYMIDINE] | > 20 | > 20 |
| O=C1[C@H](CC[C@H](O)c2ccc(F)cc2)[C@@H](c2ccc(O)cc2)N1c1ccc(F)cc1 [EZETIMIBE] | > 20 | > 20 |
| NNCCc1ccccc1 [PHENELZINE] | > 20 | > 20 |
| COc1c(C(O)CCc2ccc(O)cc2)c(OCCN2CCCCC2)c(OC)c2occc12 (configuration not stated) [PIPROFUROL] | > 20 | > 20 |
| CC(C)(C)OC(=O)N1CCC[C@H]1CO | > 20 | > 20 |

| SMILES | IC50 [µM] | IC50 (read-out: pIC50 (converted)) [µM] |
| --- | --- | --- |
| Nc1ncnc2c1ncn2[C@@H]1O[C@H](COP(=O)(O)OP(=O)(O)OP(=O)(O)O)[C@@H](O)[C@H]1O [ADENOSINE TRIPHOSPHATE] | > 20 | > 20 |
| CC(=O)N[C@@H](CCC(N)=O)C(=O)O | > 20 | > 20 |
| CC(C)(C)NC[C@H](O)COc1nsnc1N1CCOCC1 [TIMOLOL] | > 20 | > 20 |
| Nc1cccc2c1C(=O)c1cccc(N)c1C2=O | > 20 | > 20 |
| CC12CCC3C(CC[C@H]4CC(O)CCC34C)C1CCC2O (some centres not stated) | > 20 | > 20 |
| CC(=O)CCCCn1c(=O)c2c(ncn2C)n(C)c1=O [PENTOXIFYLLINE] | > 20 | > 20 |
| COc1c2c(cc3c1C(O)N(C)CC3)OCO2 (configuration not stated) | > 20 | > 20 |
| C/C(=N\N=C(/S)N/N=C(\S)Nc1ccccc1Cl)c1ccccn1 | > 20 | > 20 |
| CN(C)CCC(c1ccc(Cl)cc1)c1ccccn1 (configuration not stated) [CHLORPHENIRAMINE] | > 20 | > 20 |
| C[n+]1ccccc1C=NO [PRALIDOXIME] | > 20 | > 20 |
| C=C(C)C(=O)OCCCCCCCCCCCC | > 20 | > 20 |
| Cc1c(NC(C)C)c(=O)n(-c2ccccc2)n1C [RAMIFENAZONE] | > 20 | > 20 |
| NCCC(=O)N[C@@H](Cc1c[nH]cn1)C(=O)O [CARNOSINE] | > 20 | > 20 |
| CC(C)NCC(O)c1ccc2ccccc2c1 (configuration not stated) [PRONETALOL] | > 20 | > 20 |
| CC12C=CC(=O)C=C1C(F)CC1C2C(O)CC2(C)C1CCC2(O)C(=O)CO (configuration not stated) | > 20 | > 20 |
| Cc1cc(C(C#N)c2ccc(Cl)cc2)c(Cl)cc1NC(=O)c1cc(I)cc(I)c1O (configuration not stated) [CLOSANTEL] | > 20 | > 20 |
| Cc1nc(C(=O)NCC(=O)O)c(O)c2ccc(Oc3ccccc3)cc12 [ROXADUSTAT] | > 20 | > 20 |
| COc1cc(C(=O)O)cc(OC)c1O [SYRINGIC ACID] | > 20 | > 20 |
| CCC(N)Cc1c[nH]c2ccccc12 (configuration not stated) [ETRYPTAMINE] | > 20 | > 20 |
| CC(=O)OC1CCC2(C)C3CC=C4C5CC(C)(C)CCC5(C(=O)O)CC[C@@]4(C)C3(C)CC[C@H]2C1(C)C (some centres not stated) | > 20 | > 20 |
| CC(C)c1nc(N(C)S(C)(=O)=O)nc(-c2ccc(F)cc2)c1/C=C/C(O)CC(O)CC(=O)O (configuration not stated) | > 20 | > 20 |
| Cc1ccc(O)c([C@H](CCN(C(C)C)C(C)C)c2ccccc2)c1 [TOLTERODINE] | > 20 | > 20 |
| C[C@H](COC(=O)[C@@H](N)Cc1ccc(O)c(O)c1)OC(=O)c1ccccc1 | > 20 | > 20 |
| CCCCc1cc2ccccc2c(OCCN(C)C)n1 [DIMETHISOQUIN] | > 20 | > 20 |
| COC(=O)CC(O)(CCC(C)(C)O)C(=O)OC1C(OC)=CC23CCCN2CCc2cc4c(cc2C13)OCO4 (configuration not stated) | > 20 | > 20 |
| COc1ccc2c(c1OC)C(=O)O[C@H]2[C@@H]1c2c(cc3c(c2OC)OCO3)CCN1C | > 20 | > 20 |

| SMILES | IC50 [µM] | IC50 (read-out: pIC50 (converted)) [µM] |
| --- | --- | --- |
| NC(=O)C(c1ccccc1)(c1ccc(F)cc1)c1ccc(F)cc1 [SENICAPOC] | > 20 | > 20 |
| CO[C@H](C)[C@](O)(C(=O)OCC1=CCN2CC[C@H](O)[C@@H]12)C(C)C [HELIOTRINE] | > 20 | > 20 |
| CC(=O)OCC1=C(C(=O)O)N2C(=O)[C@@H](N)[C@H]2SC1 | > 20 | > 20 |
| COCCNCc1ccc(-c2cc3nccc(Oc4ccc(NC(=O)C5(C(=O)Nc6ccc(F)cc6)CC5)cc4F)c3s2)nc1 [SITRAVATINIB] | > 20 | > 20 |
| N[C@H]1C(O)O[C@H](CO)[C@@H](O)[C@@H]1O (some centres not stated) [GLUCOSAMINE] | > 20 | > 20 |
| NCCO [MONOETHANOLAMINE] | > 20 | > 20 |
| COc1cccc(-c2ccc(NC(=O)C3=C(C(=O)O)CCC3)c(F)c2)c1 [VIDOFLUDIMUS] | > 20 | > 20 |
| CCCC(CCC)C(N)=O [VALPROMIDE] | > 20 | > 20 |
| CC(=O)Nc1ccc(C(=O)NC(C)(C)C)cc1 [CP1-1189] | > 20 | > 20 |
| CC(C)c1ccc2c(c1)CCC1C(C)(C(N)=O)CCCC21C (configuration not stated) | > 20 | > 20 |
| O=C1CCc2cc(OCCCCc3nnnn3C3CCCCC3)ccc2N1 [CILOSTAZOL] | > 20 | > 20 |
| CCC(=O)OC1(c2ccccc2)CCN(C)C1C (configuration not stated) [PRODILIDINE] | > 20 | > 20 |
| NCCCC(N)(C(=O)O)C(F)F (configuration not stated) [EFLORNITHINE] | > 20 | > 20 |
| CN(C)CCO/N=C(/C=C/c1ccc(O)cc1)c1ccccc1F [EPLIVANSERIN] | > 20 | > 20 |
| CCOC(=O)COc1ccc2c(=O)cc(-c3ccccc3)oc2c1 [EFLOXATE] | > 20 | > 20 |
| C#Cc1cncc([C@@H]2CCCN2C)c1 [ALTINICLINE] | > 20 | > 20 |
| Oc1ccc2c3c1O[C@H]1[C@@H](O)C=C[C@H]4[C@@H](C2)NCC[C@@]341 [NORMORPHINE] | > 20 | > 20 |
| CCC1(c2ccccc2)C(=O)NC(=O)N(C)C1=O (configuration not stated) [MEPHOBARBITAL] | > 20 | > 20 |
| C=C1C(=O)O[C@@H]2[C@H]3O[C@]3(C)CC/C=C(\C)CC[C@@H]12 | > 20 | > 20 |
| c1cc2c(cc1[C@H]1OC[C@H]3[C@@H]1CO[C@H]3c1ccc3c(c1)OCO3)OCO2 [ASARININ] | > 20 | > 20 |
| CC(=O)[C@]1(N)Cc2c(O)c3c(c(O)c2[C@@H](O[C@H]2C[C@H](O)[C@H](O)CO2)C1)C(=O)c1ccccc1C3=O [AMRUBICIN] | > 20 | > 20 |
| Cc1cn([C@H]2C[C@H](N=[N+]=[N-])[C@@H](CO)O2)c(=O)[nH]c1=O [ZIDOVUDINE] | > 100 | > 100 |
| CCOC(=O)C(CCc1ccccc1)NC(C)C(=O)N(CC(=O)O)C1Cc2ccccc2C1 (configuration not stated) | > 20 | > 20 |
| CN[C@@H]1[C@@H](O[C@H]2O[C@H](CO)[C@@H](N)[C@H](O)[C@H]2O)O[C@H]2C[C@@H](N)[C@@H](O[C@H]3[C@H](O)[C@@H](O)[C@H](N)C[C@@H]3N)O[C@@H]2[C@@H]1O | > 20 | > 20 |
